Tests used:
[1] = test system: H3K27 methylation in G401 cell; test: ELISA (H3K27 methylation) assay; assay type: cell-based; conditions: cultured 48 h with compound, normalized using H3 signal
Experimental: ELISA (H3K27 methylation) assay
Representative compounds of the invention were serially and separately diluted 3-fold in DO to obtain a total of eight or twelve concentrations. Then the compounds were added to G401 cell cultured in 384-well plate at 1:500 dilution to obtain the highest concentration of 20 μM. The cells were further cultured for 48 h before ELISA procedure.
Histone extraction: Cells, in 384-well plate, were washed with PBS (10 x PBS buffer (80 g NaCl (Sigma, S3014), 2 g KCl (Sigma, 60128), 14.4 g Na2HPO4 (Sigma, S5136), 2.4 g KH2PO4 (Sigma, P9791) to 1 L water, pH to 7.4) and lysed with the addition of lysis buffer (0.4N HCl; 45 μl per well). The plate was gently agitated at 4° C. for 30 min. The cell lysate was neutralized with neutralization buffer (0.5 M sodium phosphate dibasic, pH 12.5. 1 mM DTT; 36 µL per well). The plate was agitated to ensure the lysates were well mixed prior to the ELISA protocol.
ELISA protocol: Cell lysates were transferred to the wells of a 384-well plate and the final volume was adjusted to 50 μL per well with PBS. The plate was sealed, centrifuged at 2,000 rpm for 2 min and incubated at 4° C. for about 16 h. The plate was washed with TBST buffer (1 x TBS (10x TBS: 24.2 g Tris (Sigma, T6066), 80 g NaCl (Sigma, S3014) to 1 L of water and adjust pH to 7.6 with HCl) with 0.1% Tween-20). Blocking buffer (TBST, 5% BSA; 50 µL per well) was added and the plate was incubated for 1 h at rt. The blocking buffer was removed and primary antibody was added (30 μL per well). The following dilutions were performed with blocking buffer: for anti-H3K27me3 antibody (Cell Signaling Technology, #9733), dilution was 1:1000; for anti-H3K27me2 antibody (Cell Signaling Technology, #9288), dilution was 1:100; for anti-H3 antibody (Abcam, Cat #24834), dilution was 1:1000. The primary antibody was incubated in the plate at rt for 1 h. The wells were washed with TBST and incubated with secondary antibody for 1 h at rt. For secondary antibodies, the following dilutions were carried out with blocking buffer: anti-rabbit antibody (Jackson ImmunoResearch, #111-035-003), dilution was 1:2000; and anti-mouse antibody (Cell signaling technology, #7076), dilution was 1:1000.
After 1 h of incubation at rt, the wells were washed with TBST. ECL substrate (Pierce, #34080) was added at 30 μL per well and the plates were centrifuged at 2,000 rpm for 2 min. The signal was read using a PerkinElmer Envision Reader. The H3K27 methylation readouts were normalized using H3 signal and then percentage inhibition was calculated against the samples treated with DO. The data were fit to a dose response curve using the program Helios to get the IC50 values of the test compound.

[2] = target: wild type PRC2 (wtPRC2) complex (Homo sapiens, UniProt Q15910); test: EZH2 LC-MS Assay; assay type: biochemical; conditions: 40 nM wtPRC2 complex, 30 uM SAM, 1.5 uM H3K27me1 and 3 uM H3K27me3 peptides; SAH production
Experimental: Representative compounds of the invention were serially and separately diluted 3-fold in DMSO to obtain twelve concentrations. Then the test compounds at each concentration (120 nL of each) were transferred by Mosquito into a 384-well Perkin Elmer ProxiPlate 384 plus plates. Solutions (6 μL) of 80 nM wild type PRC2 (wtPRC2) complex and 60 µM SAM in reaction buffer (20 mM Tris, pH 8.0, 0.1% BSA, 0.01% Triton, 0.5 mM DTT) were added to the wells that were then incubated with the test compound for 20 min. A 6 μL solution of 3 µM of the substrate peptide H3K27me1 (histone H3 [21-44]-K27me1-biotin) and 6 μM regulatory peptide H3K27me3 (histone H3 [21-44]-K27me3) in reaction buffer was added to initiate each reaction. The final components in the reaction solution include 40 nM wtPRC2 complex, 30 µM SAM, 1.5 µM H3K27me1 and 3 µM H3K27me3 peptides with varying concentration of the compounds. A positive control consisted of the enzyme at 40 nM, 30 μM SAM, 1.5 µM H3K27me1 and 3 µM H3K27me3 in the absence of the test compound, and a negative control consisted of 30 µM SAM, 1.5 µM H3K27me1 and 3 μM H3K27me3 only. Each reaction was incubated at room temperature for 120 min, then stopped by addition of 3 μL per of quench solution (2.5% TFA with 320 nM d4-SAH). The reaction mixture was centrifuged (Eppendorf centrifuge 5810, Rotor A-4-62) for 2 min at 2000 rpm and read on an API 4000 triple quadrupole mass spec with Turbulon Spray (Applied Biosystem) coupled with Prominence UFLC (Shimadzu). The levels of SAH production were normalized based on the values coming from the positive and negative controls to give percent enzyme activities. The data were fit to a dose response equation using the program Helios to get the […] values of the test compound.

Sequence of wild type PRC2 (wtPRC2) complex (Q15910 whole entry): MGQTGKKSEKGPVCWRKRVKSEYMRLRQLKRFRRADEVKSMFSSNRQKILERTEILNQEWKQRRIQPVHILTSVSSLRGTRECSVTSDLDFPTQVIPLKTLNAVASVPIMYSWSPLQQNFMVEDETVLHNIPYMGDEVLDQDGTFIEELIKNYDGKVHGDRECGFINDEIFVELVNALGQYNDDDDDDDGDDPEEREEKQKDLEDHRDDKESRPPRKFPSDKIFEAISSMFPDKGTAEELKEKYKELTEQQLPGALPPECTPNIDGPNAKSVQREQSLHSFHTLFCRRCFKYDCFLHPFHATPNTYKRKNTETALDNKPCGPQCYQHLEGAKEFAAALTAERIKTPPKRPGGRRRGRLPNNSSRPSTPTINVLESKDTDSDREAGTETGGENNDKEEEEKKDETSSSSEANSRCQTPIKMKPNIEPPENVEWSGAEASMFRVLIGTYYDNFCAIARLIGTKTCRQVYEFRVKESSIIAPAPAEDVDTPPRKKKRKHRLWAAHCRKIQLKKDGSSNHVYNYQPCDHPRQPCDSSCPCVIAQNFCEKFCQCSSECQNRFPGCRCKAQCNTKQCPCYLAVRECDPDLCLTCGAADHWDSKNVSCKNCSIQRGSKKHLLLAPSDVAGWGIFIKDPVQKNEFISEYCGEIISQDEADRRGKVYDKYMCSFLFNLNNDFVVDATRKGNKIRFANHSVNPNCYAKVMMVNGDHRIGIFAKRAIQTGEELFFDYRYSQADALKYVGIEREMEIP
Sequence of wild type PRC2 (wtPRC2) complex (O75530 whole entry partner): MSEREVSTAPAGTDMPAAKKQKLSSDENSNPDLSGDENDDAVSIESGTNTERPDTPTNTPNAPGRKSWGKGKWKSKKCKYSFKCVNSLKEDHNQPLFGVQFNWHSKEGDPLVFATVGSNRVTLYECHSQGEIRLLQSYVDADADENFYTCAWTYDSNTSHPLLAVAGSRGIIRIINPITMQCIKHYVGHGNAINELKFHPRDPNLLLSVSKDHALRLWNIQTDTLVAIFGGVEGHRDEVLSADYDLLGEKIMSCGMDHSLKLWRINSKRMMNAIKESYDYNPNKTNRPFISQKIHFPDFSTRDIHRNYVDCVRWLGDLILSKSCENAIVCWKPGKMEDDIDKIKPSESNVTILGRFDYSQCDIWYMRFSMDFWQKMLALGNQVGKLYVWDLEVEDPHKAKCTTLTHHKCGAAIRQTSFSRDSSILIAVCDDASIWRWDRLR
Sequence of wild type PRC2 (wtPRC2) complex (Q15022 whole entry partner): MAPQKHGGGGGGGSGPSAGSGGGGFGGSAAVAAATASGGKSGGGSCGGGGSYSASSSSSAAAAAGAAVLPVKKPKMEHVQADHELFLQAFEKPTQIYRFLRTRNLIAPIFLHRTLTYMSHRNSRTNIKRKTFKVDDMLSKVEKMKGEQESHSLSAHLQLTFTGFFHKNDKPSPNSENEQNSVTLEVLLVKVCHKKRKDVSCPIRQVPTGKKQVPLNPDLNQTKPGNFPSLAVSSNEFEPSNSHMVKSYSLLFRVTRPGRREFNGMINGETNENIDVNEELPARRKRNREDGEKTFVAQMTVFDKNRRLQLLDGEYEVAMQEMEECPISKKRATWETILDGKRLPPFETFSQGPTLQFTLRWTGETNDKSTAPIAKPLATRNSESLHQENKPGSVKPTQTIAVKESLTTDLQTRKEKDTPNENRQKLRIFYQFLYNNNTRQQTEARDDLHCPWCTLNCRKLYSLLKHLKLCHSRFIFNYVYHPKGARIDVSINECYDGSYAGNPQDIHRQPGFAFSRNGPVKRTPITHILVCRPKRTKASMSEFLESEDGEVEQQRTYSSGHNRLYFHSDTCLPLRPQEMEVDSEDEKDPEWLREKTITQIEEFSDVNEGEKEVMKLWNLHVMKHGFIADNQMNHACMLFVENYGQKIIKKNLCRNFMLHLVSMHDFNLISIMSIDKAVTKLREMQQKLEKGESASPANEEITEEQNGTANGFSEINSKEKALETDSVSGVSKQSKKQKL

Structure (SMILES)	IC50 ([1]; Homo sapiens, G-401, 48 h) [nM]	IC50 [2] [nM]	IC50 [1] [nM]
Cc1ccc2ccc(N[C@H]3CC[C@H](CNc4ncc([C@@H](CO)C(=O)NC5COC5)cn4)CC3)nc2c1Cl (single isomer, unassigned) [Example 7, (S)-2-(2-((((1r,4S)-4-((8-chloro-7-methylquinolin-2-yl)amino)cyclohexyl)methyl)amino)pyrimidin-5-yl)-3-hydroxy-N-(oxetan-3-yl)propanamide; or (R)-2-(2-((((1r,4R)-4-((8-chloro-7-methylquinolin-2-yl)amino)cyclohexyl)methyl)amino)pyrimidin-5-yl)-3-hydroxy-N-(oxetan-3-yl)propanamide]	10 to 100	50 to 100	
Cc1ccc2ccc(N[C@H]3CC[C@H](CNc4ncc([C@@H](CO)C(=O)NC5COC5)cn4)CC3)nc2c1Cl (single isomer, unassigned) [Example 8, (S)-2-(2-((((1r,4S)-4-((8-chloro-7-methylquinolin-2-yl)amino)cyclohexyl)methyl)amino)pyrimidin-5-yl)-3-hydroxy-N-(oxetan-3-yl)propanamide; or (R)-2-(2-((((1r,4R)-4-((8-chloro-7-methylquinolin-2-yl)amino)cyclohexyl)methyl)amino)pyrimidin-5-yl)-3-hydroxy-N-(oxetan-3-yl)propanamide]		< 50	< 10
Cc1ccc2ccc(N[C@H]3CC[C@H](CNc4ncc([C@H](O)C(=O)NC5COC5)cn4)CC3)nc2c1Cl (single isomer, unassigned) [Example 10, (S)-2-(2-((((1r,4S)-4-((8-chloro-7-methylquinolin-2-yl)amino)cyclohexyl)methyl)amino)pyrimidin-5-yl)-2-hydroxy-N-(oxetan-3-yl)acetamide; or (R)-2-(2-((((1r,4R)-4-((8-chloro-7-methylquinolin-2-yl)amino)cyclohexyl)methyl)amino)pyrimidin-5-yl)-2-hydroxy-N-(oxetan-3-yl)acetamide]	10 to 100	50 to 100	
Cc1ccc2ccc(N[C@H]3CC[C@H](CNc4ncc([C@H](O)C(=O)NC5COC5)cn4)CC3)nc2c1Cl (single isomer, unassigned) [Example 11, (S)-2-(2-((((1r,4S)-4-((8-chloro-7-methylquinolin-2-yl)amino)cyclohexyl)methyl)amino)pyrimidin-5-yl)-2-hydroxy-N-(oxetan-3-yl)acetamide; or (R)-2-(2-((((1r,4R)-4-((8-chloro-7-methylquinolin-2-yl)amino)cyclohexyl)methyl)amino)pyrimidin-5-yl)-2-hydroxy-N-(oxetan-3-yl)acetamide]		< 50	< 10
Cc1ccc2ccc(N[C@H]3CC[C@H](CNc4ncc([C@H](C)C(=O)NC5COC5)cn4)CC3)nc2c1Cl (single isomer, unassigned) [Example 13, (S)-2-(2-((((1r,4S)-4-((8-chloro-7-methylquinolin-2-yl)amino)cyclohexyl)methyl)amino)pyrimidin-5-yl)-N-(oxetan-3-yl)propanamide; or (R)-2-(2-((((1r,4R)-4-((8-chloro-7-methylquinolin-2-yl)amino)cyclohexyl)methyl)amino)pyrimidin-5-yl)-N-(oxetan-3-yl)propanamide]		< 50	
Cc1ccc2ccc(N[C@H]3CC[C@H](CNc4ncc([C@H](C)C(=O)NC5COC5)cn4)CC3)nc2c1Cl (single isomer, unassigned) [Example 14, (S)-2-(2-((((1r,4S)-4-((8-chloro-7-methylquinolin-2-yl)amino)cyclohexyl)methyl)amino)pyrimidin-5-yl)-N-(oxetan-3-yl)propanamide; or (R)-2-(2-((((1r,4R)-4-((8-chloro-7-methylquinolin-2-yl)amino)cyclohexyl)methyl)amino)pyrimidin-5-yl)-N-(oxetan-3-yl)propanamide]		< 50	
Cc1ccc2ccc(N[C@H]3CC[C@H](CNc4ncc(CC(=O)NC5COC5)cn4)CC3)nc2c1Cl [Example 1, 2-(2-((((1R,4R)-4-((8-chloro-7-methylquinolin-2-yl)amino)cyclohexyl)methyl)amino)pyrimidin-5-yl)-N-(oxetan-3-yl)acetamide]	< 10	< 50	
Cc1ccc2ccc(N[C@H]3CC[C@H](CNc4ncc(CC(=O)N(C)C5COC5)cn4)CC3)nc2c1Cl [Example 2, 2-(2-((((1r,4r)-4-((8-chloro-7-methylquinolin-2-yl)amino)cyclohexyl)methyl)amino)pyrimidin-5-yl)-N-methyl-N-(oxetan-3-yl)acetamide]	< 10	< 50	
Cc1ccc2ccc(N[C@H]3CC[C@H](CNc4ncc(C(F)(F)C(=O)NC5COC5)cn4)CC3)nc2c1Cl [Example 3, 2-(2-((((1r,4r)-4-((8-chloro-7-methylquinolin-2-yl)amino)cyclohexyl)methyl)amino)pyrimidin-5-yl)-2,2-difluoro-N-(oxetan-3-yl)acetamide]	< 10	< 50	
Cc1ccc2ccc(N[C@H]3CC[C@H](CNc4ncc(C(C)(O)C(=O)NC5COC5)cn4)CC3)nc2c1Cl (some centres unmarked) [Example 4, 2-(2-((((1r,4r)-4-((8-chloro-7-methylquinolin-2-yl)amino)cyclohexyl)methyl)amino)pyrimidin-5-yl)-2-hydroxy-N-(oxetan-3-yl)propanamide]	> 100	< 50	
Cc1ccc2ccc(N[C@H]3CC[C@H](CNc4ncc(C(C#N)C(=O)NC5COC5)cn4)CC3)nc2c1Cl (some centres unmarked) [Example 5, 2-(2-((((1r,4r)-4-((8-chloro-7-methylquinolin-2-yl)amino)cyclohexyl)methyl)amino)pyrimidin-5-yl)-2-cyano-N-(oxetan-3-yl)acetamide]	< 10	< 50	
Cc1ccc2ccc(N[C@H]3CC[C@H](CNc4ncc(C(CO)C(=O)NC5COC5)cn4)CC3)nc2c1Cl (some centres unmarked) [Example 6, 2-(2-((((1r,4r)-4-((8-chloro-7-methylquinolin-2-yl)amino)cyclohexyl)methyl)amino)pyrimidin-5-yl)-3-hydroxy-N-(oxetan-3-yl)propanamide]	< 10	< 50	
Cc1ccc2ccc(N[C@H]3CC[C@H](CNc4ncc(C(O)C(=O)NC5COC5)cn4)CC3)nc2c1Cl (some centres unmarked) [Example 9, 2-(2-((((1r,4r)-4-((8-chloro-7-methylquinolin-2-yl)amino)cyclohexyl)methyl)amino)pyrimidin-5-yl)-2-hydroxy-N-(oxetan-3-yl)acetamide]	< 10	< 50	
Cc1ccc2ccc(N[C@H]3CC[C@H](CNc4ncc(C(C)C(=O)NC5COC5)cn4)CC3)nc2c1Cl (some centres unmarked) [Example 12, 2-(2-((((1r,4r)-4-((8-chloro-7-methylquinolin-2-yl)amino)cyclohexyl)methyl)amino)pyrimidin-5-yl)-N-(oxetan-3-yl)propanamide]	< 10	< 50	

From patent publication US12473273B2, “Quinoline compounds and compositions for inhibiting EZH2” (Novartis AG, priority 2020, dated 2025)
